Test: Human HepG2 cell viability assay in 384 well format
Format: toxicity, cell-based
Design: dose 125 nL, time 70.5 hour; concentration not given beside the values
Conditions: HepG2 cells, read-out: Inhibition

Row | Structure (SMILES) | cytotoxicity at 70.5 h [%]
1 | CC(C)(C)n1ncc2c(=O)n(CC(=O)NCc3ccccc3Cl)cnc21 | -0.0412
2 | CC(C)(C)n1ncc2c(=O)n(CC(=O)NCc3ccccc3)cnc21 | 7.32
3 | Cc1c(C)n2c(SCC(=O)N3CCOCC3)nnc2[nH]c1=O | -3.31
4 | CCc1c(C)nc(SCc2ccccn2)[nH]c1=O | -5.97
5 | CCOC(=O)c1sc(NC(=O)C(C)C)c(C#N)c1C | -5.23
6 | Cc1c(C)n2c(SCC(=O)N3CCCCC3)nnc2[nH]c1=O | -8.89
7 | CCn1/c(=N/C(=O)CSCC(=O)Nc2nccs2)sc2ccccc21 | -0.443
8 | Nc1nc2c(c(NC(=O)Nc3cccc(Cl)c3)n1)CCCC2 | 13.3
9 | COCCn1/c(=N\C(=O)CN(C)S(C)(=O)=O)sc2cc(C)ccc21 | 14.4
10 | COCCSc1ccc(-n2cccn2)nn1 | 12.3
11 | COCCSc1ccc(-n2ccnc2)nn1 | 26.4
12 | Cc1ccccc1OCC(=O)NCC(c1ccc(N(C)C)cc1)N(C)C (stereo unspecified) | 29.2
13 | Cc1cc(=O)[nH]c(-n2nc(-c3cccs3)cc2N)n1 | 13.9
14 | O=c1n(Cc2cccc(C(F)(F)F)c2)nc2ncccn12 | 24.8
15 | CCN(CC)C(=O)CSc1nc2c(cnn2CCO)c(=O)[nH]1 | 17.2
16 | O=C(Cc1ccc(Cl)s1)Nc1ccc2c(c1)C(=O)NC2=O | -1.77
17 | NC(=O)Cn1c(CO)cnc1SCC(=O)NCc1ccccc1 | 13.6
18 | CN1C(=O)CCc2cc(NC(=O)C3CCCC3)ccc21 | 26.5
19 | O=S(=O)(NCC(c1ccsc1)N1CCCCCC1)c1cccs1 (stereo unspecified) | -3.34

Row | Structure (SMILES) | cytotoxicity at 70.5 h [%]
20 | CCOc1ccc(C(=O)Nc2c(C)nc3scc(C)n3c2=O)cc1 | -0.312
21 | CC(=O)Nc1ccc2c(c1)CN(C(=O)c1ccco1)CC2 | 18.4
22 | CCOc1cc(N2CCN(C(=O)c3ccc(OC)cc3)CC2)nc(C)n1 | 5.38
23 | O=C(Nc1ncnc2c1CCC2)c1cccc(F)c1 | 11.5
24 | COc1cc(OC)cc(C(=O)Nc2ncnc3c2CCC3)c1 | 59
25 | Cc1cc(C(=O)N2CCN(c3nc4ccccc4s3)CC2)no1 | 48.3
26 | COc1cccc2sc(N3CCN(C(=O)c4cc(C)on4)CC3)nc12 | -2.51
27 | Cc1cnc2c(c1NCc1ccc(F)cc1)c(=O)n(C)c(=O)n2C | 12.7
28 | Cc1cnc2c(c1NCc1cccs1)c(=O)n(C)c(=O)n2C | -16.9
29 | CC(C)NC(=O)Cn1cc(OCc2ccc(F)cc2)c(=O)cc1CO | -4.49
30 | COCCNC(=O)Cn1cc(OCc2ccc(F)cc2)c(=O)cc1CO | -9.69
31 | O=C(CC1CSc2nccc(=O)n21)NCc1ccco1 (stereo unspecified) | -1.36
32 | Cc1cnc2n(c1=O)C(CC(=O)NCc1ccccc1Cl)CS2 (stereo unspecified) | 35
33 | Cc1cnc2n(c1=O)C(CC(=O)NCc1cccnc1)CS2 (stereo unspecified) | -0.178
34 | CCCc1cc(=O)[nH]c2nnc(SCC(N)=O)n12 | 23.3
35 | CCCc1cc(=O)[nH]c2nnc(SCC(C)=O)n12 | -6.78
36 | Cc1cccc(-n2ncc3c(=O)n(CCN4CCCCC4)cnc32)c1C | 28
37 | CCOC(=O)c1sc(NC(=O)CN2C(=O)CCC2=O)c(C#N)c1C | 31.1
38 | CCS(=O)(=O)c1cccc(C(=O)Nc2cccc3c2C(=O)N(C)C3=O)c1 | 31

Row | Structure (SMILES) | cytotoxicity at 70.5 h [%]
39 | CCCc1cc(=O)n(CC(=O)NCCOC)c(-n2nc(C)cc2C)n1 | -0.382
40 | O=C(CSC1=NS(=O)(=O)c2cc(F)ccc2N1)Nc1ccc(Cl)cc1 | 22.3
41 | CCNC(=O)NCc1nn(CCN2CCCC2)c(=O)c2ccccc12 | -5.36
42 | CN(C)S(=O)(=O)NCc1nn(CCN2CCCC2)c(=O)c2ccccc12 | -12.7
43 | Cc1ccccc1CSc1nc(=O)n(CCO)c2c1CCC2 | -9.33
44 | CCCN1CCc2nc(SCc3ccccc3)[nH]c(=O)c2C1 | 8.44
45 | CCCN1CCc2nc(SCc3ccccc3F)[nH]c(=O)c2C1 | 6.37
46 | CCCS(=O)(=O)c1ccc(N2CCC(Cc3ccccc3)CC2)nn1 | -2.73
47 | CC(C)(C)OC(=O)Cn1cccc(S(=O)(=O)N2CCCC2)c1=O | -12.8
48 | O=c1c(S(=O)(=O)N2CCCC2)cccn1Cc1c(F)cccc1Cl | -6.76
49 | O=c1c(S(=O)(=O)N2CCCCC2)cccn1Cc1ccccc1Cl | -1.51
50 | CC1CCN(S(=O)(=O)c2cccn(CC(=O)NC(C)(C)C)c2=O)CC1 | -9.49
51 | Cc1ccc(-c2csc3c(=O)[nH]c(N4CCCC(C(N)=O)C4)nc23)cc1 (stereo unspecified) | 1.04
52 | O=C(O)C1CCCN(c2nc3c(-c4ccccc4)csc3c(=O)[nH]2)C1 (stereo unspecified) | 0.25
53 | COCCCNC(=O)Cc1cc(-c2ccc(Cl)cc2)on1 | 3.59
54 | O=C(Cc1cc(-c2ccc3c(c2)OCCO3)on1)NCc1ccccn1 | -10.7
55 | O=C(c1cc(F)cc(F)c1)N1CCC2(CC1)CC2 | -9.31
56 | O=C(C1CCCC1)N1CCO[C@@H]2CNC[C@@H]21 | 12.2
